Measurements published in patent US10829452B2, “Histone methyltransferase inhibitors” (GLOBAL BLOOD THERAPEUTICS, INC., priority 2016, dated 2020).
Where a name gives a salt, the structure may show the parent alone.

Biological target: T1, G9a (Homo sapiens, UniProt Q96KQ7)
T1 sequence (Q96KQ7 1-1210): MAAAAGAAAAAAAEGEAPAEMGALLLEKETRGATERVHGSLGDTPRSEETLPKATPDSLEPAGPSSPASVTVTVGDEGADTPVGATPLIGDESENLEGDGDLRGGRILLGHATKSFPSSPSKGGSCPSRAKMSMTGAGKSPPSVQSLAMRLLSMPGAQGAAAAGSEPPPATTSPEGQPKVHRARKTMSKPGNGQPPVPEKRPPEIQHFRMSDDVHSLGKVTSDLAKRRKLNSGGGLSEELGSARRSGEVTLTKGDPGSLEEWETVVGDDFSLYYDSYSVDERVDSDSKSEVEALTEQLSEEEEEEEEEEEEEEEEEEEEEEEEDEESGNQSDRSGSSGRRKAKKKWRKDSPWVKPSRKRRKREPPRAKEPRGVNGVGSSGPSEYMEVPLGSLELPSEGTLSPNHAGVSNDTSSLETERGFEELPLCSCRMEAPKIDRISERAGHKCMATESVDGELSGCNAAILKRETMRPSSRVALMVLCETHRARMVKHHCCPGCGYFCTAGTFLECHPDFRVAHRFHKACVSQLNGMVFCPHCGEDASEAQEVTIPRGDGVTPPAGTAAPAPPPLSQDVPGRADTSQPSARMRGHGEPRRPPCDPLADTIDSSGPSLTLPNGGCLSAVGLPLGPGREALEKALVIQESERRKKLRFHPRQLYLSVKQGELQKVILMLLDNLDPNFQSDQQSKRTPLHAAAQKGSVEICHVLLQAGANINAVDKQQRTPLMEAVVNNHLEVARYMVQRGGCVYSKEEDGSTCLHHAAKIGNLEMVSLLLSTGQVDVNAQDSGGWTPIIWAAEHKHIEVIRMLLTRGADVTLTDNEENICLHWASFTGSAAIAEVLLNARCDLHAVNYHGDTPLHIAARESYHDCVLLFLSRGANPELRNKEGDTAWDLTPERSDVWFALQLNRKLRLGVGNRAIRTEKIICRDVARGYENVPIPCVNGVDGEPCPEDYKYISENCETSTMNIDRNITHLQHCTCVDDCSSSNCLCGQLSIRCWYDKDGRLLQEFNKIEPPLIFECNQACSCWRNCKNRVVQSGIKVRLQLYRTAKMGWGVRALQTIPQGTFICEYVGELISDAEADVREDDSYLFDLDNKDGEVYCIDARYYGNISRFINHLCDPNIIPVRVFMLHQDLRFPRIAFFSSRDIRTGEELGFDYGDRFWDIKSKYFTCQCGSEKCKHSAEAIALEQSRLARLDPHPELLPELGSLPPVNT
Assay: G9a AlphaLISA enzymatic activity assay
Assay type: biochemical
Conditions: 0.15 nM G9a, 15 uM S-adenosyl-methionine, 100 nM biotinylated histone 3 peptide (1-21), 1 hour at room temperature; read-out: G9a in (uM) (IC50, concentration that produced 50% inhibition)
Method in brief: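 Human G9a (0.15 nM) methylated 100 nM biotinylated histone H3(1-21) peptide with 15 uM SAM in Tris-HCl pH9 buffer with NaCl, Tween-20 and DTT, 1 h at room temperature. H3K9me2 was detected by AlphaLISA acceptor/streptavidin donor beads (20 ug/mL each); IC50 from percent inhibition across compound dilutions.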

Row | Compound | IC50 [µM]
1 | COc1cc2c3c(c(C4CC4)nc2cc1OCCCN1CCCC1)CC(C)(C)N3 [Example 36, 1-[3-({4-cyclopropyl-8-methoxy-2,2-dimethyl-1H,2H,3H-pyrrolo[3,2-c]quinolin-7-yl}oxy)propyl]pyrrolidine formate] | 0.009
2 | COc1cc2c3c(c(NC(C)C)nc2c(F)c1OCCCN1CCCC1)CCC3 [Example 63, 6-fluoro-8-methoxy-N-(propan-2-yl)-7-[3-(pyrrolidin-1-yl)propoxy]-1H,2H,3H-cyclopenta[c]quinolin-4-amine formate] | 2.3
3 | COc1cc2c3c(c(C4CCCC4)nc2cc1OCCCN1CCCC1)CC(C)(C)N3 [Example 113, 1-[3-({4-cyclopentyl-8-methoxy-2,2-dimethyl-1H,2H,3H-pyrrolo[3,2-c]quinolin-7-yl}oxy)propyl]pyrrolidine hydrochloride] | 0.006
4 | COc1cc2c3c(c(N[C@H]4C[C@H](O)C4)nc2cc1OCCCN1CCCC1)CCC3 [Example 16, (1r,3r-3-({8-methoxy-7-[3-(pyrrolidin-1-yl)propoxy]-1H,2H,3H-cyclopenta[c]quinolin-4-yl}amino)cyclobutan-1-ol trifluoroacetate] | 0.11
5 | COc1cc2c3c(c(NC(C)C)nc2cc1OCCCN1CCCC1)CC(C)(C)N3 [Example 25, 8-methoxy-2,2-dimethyl-N-(propan-2-yl)-7-[3-(pyrrolidin-1-yl)propoxy]-1H,2H,3H-pyrrolo[3,2-c]quinolin-4-amine trifluoroacetate] | 0.005
6 | COc1cc2c3c(c(NC(C)C)nc2cc1OCC1CCN(C)C1)CCCC3 (stereo not shown) [Example 51, 2-methoxy-3-[(1-methylpyrrolidin-3-yl)methoxy]-N-(propan-2-yl)-7,8,9,10-tetrahydrophenanthridin-6-amine formate] | 0.88
7 | COc1cc2c3c(c(NCC4CCC4)nc2cc1OCCCN1CCCC1)CC(C)(C)C3 [Example 96, N-(cyclobutylmethyl)-8-methoxy-2,2-dimethyl-7-(3-(pyrrolidin-1-yl)propoxy)-2,3-dihydro-1H-cyclopenta[c]quinolin-4-amine formate] | 0.1
8 | COc1cc2c3c(c(C4CC4)nc2cc1OCCCN1CCCC1)CCCCN3 [Example 80, 1-[3-({6-cyclopropyl-10-methoxy-1H,2H,3H,4H,5H-azepino[3,2-c]quinolin-9-yl}oxy)propyl]pyrrolidine trifluoroacetate] | 0.009
9 | COc1cc2c3c(c(NC4CCCC4)nc2cc1OCCCN1CCCC1)CCC3 [Example 8, N-cyclopentyl-8-methoxy-7-[3-(pyrrolidin-1-yl)propoxy]-1H,2H,3H-cyclopenta[c]quinolin-4-amine trifluoroacetate] | 0.04
10 | COc1cc2nc(NC3CC3)c3c(c2cc1OCCCN1CCCC1)COC3 [Example 47, N-cyclopropyl-7-methoxy-8-[3-(pyrrolidin-1-yl)propoxy]-1H,3H-furo[3,4-c]quinolin-4-amine] | 3.1
11 | CNc1nc2cc(OCCCN3CCCC3)c(OC)cc2c2c1CCCN2 [Example 26, 9-methoxy-N-methyl-8-[3-(pyrrolidin-1-yl)propoxy]-1H,2H,3H,4H-benzo[h]1,6-naphthyridin-5-amine formate] | 0.004
12 | COc1cc2c3c(c(NC4CCN(C)CC4)nc2cc1OCCCN1CCCC1)CCC3 [Example 41, N-{8-methoxy-7-[3-(pyrrolidin-1-yl)propoxy]-1H,2H,3H-cyclopenta[c]quinolin-4-yl}-1-methylpiperidin-4-amine formate] | 0.5
13 | COc1cc2c3c(c(NCCSC)nc2cc1OCCCN1CCCC1)CCC3 [Example 120, 8-methoxy-N-[2-(methylsulfanyl)ethyl]-7-[3-(pyrrolidin-1-yl)propoxy]-1H,2H,3H-cyclopenta[c]quinolin-4-amine formate] | 0.075
14 | COc1cc2c3c(c(C4CCCC4)nc2cc1OCCCN1CCCC1)CCC3 [Example 109, 1-[3-({4-cyclopentyl-8-methoxy-1H,2H,3H-cyclopenta[c]quinolin-7-yl}oxy)propyl]pyrrolidine formate] | 0.5
15 | COc1cc2c3c(c(NC4CCCCC4)nc2cc1OCCCN1CCCC1)CCC3 [Example 107, N-cyclohexyl-8-methoxy-7-[3-(pyrrolidin-1-yl)propoxy]-1H,2H,3H-cyclopenta[c]quinolin-4-amine trifluoroacetate] | 0.016
16 | COc1cc2c3c(c(NCC4CCC4)nc2cc1OCCCN1CCCC1)CCC3 [Example 49, N-(cyclobutylmethyl)-8-methoxy-7-[3-(pyrrolidin-1-yl)propoxy]-1H,2H,3H-cyclopenta[c]quinolin-4-amine formate] | 0.046
17 | COc1cc2c3c(c(NCCC(F)(F)F)nc2cc1OCCCN1CCCC1)CCC3 [Example 66, 8-methoxy-7-[3-(pyrrolidin-1-yl)propoxy]-N-(3,3,3-trifluoropropyl)-1H,2H,3H-cyclopenta[c]quinolin-4-amine] | 0.22
18 | COc1cc2c3c(c(NC(C)C)nc2cc1OCCCN1CCCC1)CCC3 [Example 3, 8-methoxy-N-(propan-2-yl)-7-[3-(pyrrolidin-1-yl)propoxy]-1H,2H,3H-cyclopenta-[c]quinolin-4-amine trifluoroacetate] | 0.015
19 | COc1cc2c3c(c(NCC(F)(F)F)nc2cc1OCCCN1CCCC1)CCC3 [Example 65, 8-methoxy-7-[3-(pyrrolidin-1-yl)propoxy]-N-(2,2,2-trifluoroethyl)-1H,2H,3H-cyclopenta[c]quinolin-4-amine formate] | 0.74
20 | COc1cc2c3c(c(NC(C)C)nc2cc1OCCCN1CCCC1)CC(C)C3 (stereo not shown) [Example 6, 8-methoxy-2-methyl-N-(propan-2-yl)-7-[3-(pyrrolidin-1-yl)propoxy]-1H,2H,3H-cyclopenta[c]quinolin-4-amine formate] | 0.027
21 | COc1cc2c(cc1OCCCN1CCCC1)nc(NC(C)C)c1cccnc12 [Example 52, 9-methoxy-N-(propan-2-yl)-8-[3-(pyrrolidin-1-yl)propoxy]benzo[h]1,6-naphthyridin-5-amine formate] | 0.34
22 | COc1cc2c3c(c(N4CCCC4)nc2cc1OCCCN1CCCC1)CCC3 [Example 10, 1-{8-methoxy-7-[3-(pyrrolidin-1-yl)propoxy]-1H,2H,3H-cyclopenta[c]quinolin-4-yl}pyrrolidine formate] | 0.19
23 | COc1cc2c3c(c(C4CCCCC4)nc2cc1OCCCN1CCCC1)CCC3 [Example 110, 1-[3-({4-cyclohexyl-8-methoxy-1H,2H,3H-cyclopenta[c]quinolin-7-yl}oxy)propyl]pyrrolidine trifluoroacetate] | 1.4
24 | COc1cc2c3c(c(NC4CC4)nc2cc1OCCCN1CCCC1)CCC3 [Example 105, N-cyclopropyl-8-methoxy-7-[3-(pyrrolidin-1-yl)propoxy]-1H,2H,3H-cyclopenta[c]quinolin-4-amine trifluoroacetate] | 0.021
25 | COc1cc2c3c(c(NCCC#N)nc2cc1OCCCN1CCCC1)CCC3 [Example 119, 3-({8-methoxy-7-[3-(pyrrolidin-1-yl)propoxy]-1H,2H,3H-cyclopenta[c]quinolin-4-yl}amino)propanenitrile formate] | 0.11
26 | COc1cc2c3c(c(NC(C)C)nc2cc1OCCCN1CCCC1)CCCCN3 [Example 34, 10-methoxy-N-(propan-2-yl)-9-[3-(pyrrolidin-1-yl)propoxy]-1H,2H,3H,4H,5H-azepino[3,2-c]quinolin-6-amine formate] | 0.01
27 | COc1cc2c3c(c(NC(C)C)nc2cc1OCCCN1CCCC1)CCCN3 [Example 27, 9-methoxy-N-(propan-2-yl)-8-[3-(pyrrolidin-1-yl)propoxy]-1H,2H,3H,4H-benzo[h]1,6-naphthyridin-5-amine trifluoroacetate] | 0.006
28 | COc1cc2c3c(c(N(C)c4ccccc4)nc2cc1OCCCN1CCCC1)CCC3 [Example 69, 8-methoxy-N-methyl-N-phenyl-7-[3-(pyrrolidin-1-yl)propoxy]-1H,2H,3H-cyclopenta[c]quinolin-4-amine trifluoroacetate] | > 10
